Results on two molecules are retold here after US20260216166A1, “COMPOUND FOR TREATMENT OF ERECTILE DYSFUNCTION” (Initiator Pharma A/S, priority 2023, published 2026).

“Also recorded” adds a separate entry of the source.

Assay [1] concerns rat corpus cavernosum strips. Nature of the assay: Isometric tension of isolated rat corpus cavernosum strips. Conditions: baseline tension, clozapine 10^-6 M, SCH23390, L-NOARG 10^-4 M, sildenafil 10^-7 M. As to the method:
For functional studies in corpus cavernosum strips, the penis was removed by cutting the crura corpora cavernosa at the point of adhesion to the lower pubic bone, and the corpora cavernosa were then dissected free. The penis was submerged immediately in ice-cold (4° C.) PSS. The tunica albuginea was carefully opened from its proximal extremity of the corpus cavernosum towards the penile shaft and the erectile tissue within the corpus cavernosum was microsurgically dissected free. Change in isometric tension of corpus cavernosum strips (0.5×0.5×3 mm) were investigated in a tissue organ bath system (750TOBS, Danish Myotechnology, Aarhus, Denmark). Silk ligatures were applied at both ends of the strip preparations, which were then suspended between two L-formed metal prongs in thermostatically controlled organ baths (5 ml, 37° C.) containing PSS aerated with a mixture of 5% CO2 in air (pH 7.4). The bath fluid was routinely changed every 20 min and replaced with fresh PSS, also kept at 37° C. During an equilibration period of 60 min, tension was adjusted until a mean stable tension of 1.2 mN was obtained, as described earlier.
To test the contractility of the preparations, they were exposed to a potassium physiological saline solution (KPSS) of 125 mM and phenylephrine (10^-6 M), after each contraction acetylcholine was administrated to check endothelium-dependent relaxations.
To investigate the effect of IP2015 on corpus cavernosum strips, the drug (10 9-3×10^-4 M) was administered either in preparations at baseline tension or contracted with phenylephrine (10^-6 M) in the absence or presence of L-NOARG (10 4 M), a NO synthase inhibitor, sildenafil (10^-7 M), a PDE5 inhibitor, a dopamine D1 receptor antagonist, SCH23390, and a dopamine D2 receptor antagonist, clozapine (10^-6 M). The effect of vehicle was also investigated.

Assay [2] relates to anaesthetized rats. Kind of assay: Intracavernous pressure / spontaneous erections in anaesthetized rats. The note with it: rats. Format: in vivo, rat. How it is done:
For in vivo erectile physiology studies, rats were anaesthetized with pentobarbital sodium (Sygehus Apoteket, Aarhus, Denmark; 50 mg/kg) given intraperitoneally. During the experiment, the rats breathed spontaneously; the body temperature was monitored continuously and was maintained at 37° C. With a midline incision in the perineum, the base of the penis, enclosed by striated muscles, was exposed. The ischiocavernous muscle covering the crus corpus cavernosum was divided on one side, and entrance to the underlying tunica albuginea was given. A 25-gauge needle attached to a heparinized (100 IE ml-1) polyethylene catheter was inserted into the crus corpus cavernosum to measure intracavernous pressure (ICP). A heparinized polyethylene catheter (PE 50) was introduced into the carotid artery to measure mean arterial pressure (MAP). Continuous direct measurements of MAP and ICP were performed with transducers (Disposable BP Transducer, ADInstruments, UK), and registered and analysed on a computerized data acquisition system (PowerLab, ADInstruments).
A stabilizing period of 20-30 min was allowed before registration of basal ICP and MAP. Through a lower abdominal incision, the cavernous nerve was isolated at the lateral aspect of the prostate, and electrical stimulation was performed with a slender bipolar platinum electrode, which was connected to a S48 stimulator (Grass Instrument Co., Boston, MA, U.S.A.). To measure the maximum amplitude of the erectile response, a first stimulation of the cavernous nerve (square wave pulses of 6 Volts, 10 Hz, 1 ms pulse duration for 30 s) was performed.
IP2015, sildenafil, clozapine or vehicle were administered by injection in the jugular vein in volumes of maximum 200 μl. […] The observation period of spontaneous erection after injection of IP2015 was 30 min. Clozapine (1 mg/kg) or sildenafil (1 mg/kg) were administered 30 or 10 min prior to 1 mg/kg IP2015 injection, respectively. One group was injected with vehicle alone.
To investigate the involvement of proximal neuronal pathways in the effect of IP2015, mechanical denervation was performed. For mechanical denervation the isolated cavernous nerve was cut distal to the major pelvic ganglion. Absence of erectile response to electrical stimulation verified the efficacy of mechanical denervation.

For `N=C(NCCC[C@H](N)C(=O)O)N[N+](=O)[O-]` [L-NOARG, N^G-nitro-L-arginine, reference compound], the “effect on IP2015 relaxation of corpus cavernosum strips” value is reported as “abolished the relaxant effect of IP2015” in assay [1] and “blunted” in assay [1] (listed as NG-nitro-L-arginine).

Turning to `CCCc1nn(C)c2c(=O)[nH]c(-c3cc(S(=O)(=O)N4CCN(C)CC4)ccc3OCC)nc12` [sildenafil, reference compound], in assay [2] (sildenafil 1 mg/kg), the “effect on magnitude of erectile responses induced by IP2015 (0.1 mg/kg)” value is reported as “an effect on the magnitude of erectile responses”. The “effect on IP2015-induced erectile responses” value in assay [2] (sildenafil 1 mg/kg 10 min or clozapine 1 mg/kg 30 min prior to IP2015 i.v.) is given as “markedly increased the duration of these responses; also recorded: further enhanced the IP2015 mediated increase in intracavernosal pressure”. In addition, in assay [1], the “effect on IP2015 relaxation of corpus cavernosum strips” value is reported as “enhanced relaxation to IP2015”.
